Measurements as given in US7579469B2, “Glucocorticoid mimetics, methods of making them, pharmaceutical compositions, and uses thereof” (Boehringer Ingelheim Pharmaceuticals, Inc., priority 2003, dated 2009).

Target: T1, human glucocorticoid receptor (GR) complex (Homo sapiens, UniProt P04150)
T1 construct: made in house; host or cells: insect expression system (baculovirus lysate)
T1 sequence (P04150 1-777): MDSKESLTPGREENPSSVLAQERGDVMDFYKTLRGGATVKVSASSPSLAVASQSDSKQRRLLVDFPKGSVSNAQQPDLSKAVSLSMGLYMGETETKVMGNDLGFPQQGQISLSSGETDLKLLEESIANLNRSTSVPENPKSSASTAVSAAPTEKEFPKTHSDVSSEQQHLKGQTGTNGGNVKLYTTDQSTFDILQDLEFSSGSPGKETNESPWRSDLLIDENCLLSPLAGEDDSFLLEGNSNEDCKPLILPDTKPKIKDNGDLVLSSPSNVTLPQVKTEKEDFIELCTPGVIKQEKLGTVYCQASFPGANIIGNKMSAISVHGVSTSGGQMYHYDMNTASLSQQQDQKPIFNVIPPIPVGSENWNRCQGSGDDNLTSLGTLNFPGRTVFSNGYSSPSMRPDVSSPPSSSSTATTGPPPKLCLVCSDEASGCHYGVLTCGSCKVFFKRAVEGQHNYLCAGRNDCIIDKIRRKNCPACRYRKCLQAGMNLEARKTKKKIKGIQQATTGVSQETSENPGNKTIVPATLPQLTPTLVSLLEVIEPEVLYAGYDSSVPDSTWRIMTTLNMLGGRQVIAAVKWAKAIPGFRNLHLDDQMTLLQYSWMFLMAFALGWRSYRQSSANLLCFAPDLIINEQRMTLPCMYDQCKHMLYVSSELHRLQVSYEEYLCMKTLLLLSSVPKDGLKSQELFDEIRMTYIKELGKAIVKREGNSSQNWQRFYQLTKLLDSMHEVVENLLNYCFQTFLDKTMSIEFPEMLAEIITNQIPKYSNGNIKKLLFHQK
Assay: Glucocorticoid receptor competitive binding assay (fluorescence polarization)
Conditions: competition with TAMRA-labeled dexamethasone
Description: Compounds of the invention were evaluated for binding to the steroid receptor by a fluorescence polarization competitive binding assay.
A. Glucocorticoid Receptor Competitive Binding Assay
Step 1. Characterization of the Fluorescent Probe
The wavelengths for maximum excitation and emission of the fluorescent probe should first be measured. An example of such a probe is rhodamine (TAMRA)-labeled dexamethasone.
The affinity of the probe for the steroid receptor was then determined in a titration experiment. The fluorescence polarization value of the probe in assay buffer was measured on an SLM-8100 fluorometer using the excitation and emission maximum values described above. Aliquots of expression vector lysate were added and fluorescence polarization was measured after each addition until no further change in polarization value was observed. Non-linear least squares regression analysis was used to calculate the dissociation constant of the probe from the polarization values obtained for lysate binding to the probe.
Step 2. Screening for Inhibitors of Probe Binding
This assay uses fluorescence polarization (FP) to quantitate the ability of test compounds to compete with tetramethyl rhodamine (TAMRA)-labeled dexamethasone for binding to a human glucocorticoid receptor (GR) complex prepared from an insect expression system. The assay buffer was: 10 mM TES, 50 mM KCl, 20 mM Na2MoO4.2H20, 1.5 mM EDTA, 0.04% w/v CHAPS, 10% v/v glycerol, 1 mM dithiothreitol, pH 7.4. Test compounds were dissolved to 1 mM in neat DMSO and then further diluted to 10× assay concentration in assay buffer supplemented with 10% v/v DMSO. Test compounds were serially diluted at 10× assay concentrations in 10% DMSO-containing buffer in 96-well polypropylene plates. Binding reaction mixtures were prepared in 96-well black Dynex microtiter plates by sequential addition of the following assay components to each well: 15 μL of 10× test compound solution, 85 μL of GR-containing baculovirus lysate diluted 1:170 in assay buffer, and 50 μL of 15 nM TAMRA-labeled dexamethasone. Positive controls were reaction mixtures containing no test compound; negative controls (blanks) were reaction mixtures containing 0.7 μM to 2 μM dexamethasone. […] IC50 values were determined by iterative non-linear curve fitting of the FP signal data to a 4-parameter logistic equation.

SMILES | activity in the GR binding assay
CCOc1cccc(C(C)(C)CC(O)(Cn2ccc(=O)c3ccccc32)C(F)(F)F)c1 (stereo not shown) | potent activity
CC(C)(CC(O)(Cn1ccc(=O)c2ccccc21)C(F)(F)F)c1ccc(F)cc1 (stereo not shown) [1-[4-(4-Fluorophenyl)-2-hydroxy-4-methyl-2-trifluoromethylpentyl]-1H-quinolin-4-one] | potent activity
CC(C)(CC(O)(Cn1[nH]c(=O)c2ccccc21)C(F)(F)F)c1cc(F)ccc1O (stereo not shown) [1-[4-(5-Fluoro-2-hydroxyphenyl)-2-hydroxy-4-methyl-2-trifluoromethylpentyl]-1,2-dihydroindazol-3-one] | potent activity
Cc1ccc(F)cc1C(C)(C)CC(O)(Cn1ccc(=O)c2ccccc21)C(F)(F)F (stereo not shown) | potent activity
CC(C)(CC(O)(Cn1ccc(=O)c2ncccc21)C(F)(F)F)c1cccc2c1OCC2 (stereo not shown) | potent activity
CC(C)(CC(O)(Cn1ccc(=O)c2ccccc21)C(F)(F)F)c1cc(-c2ccsc2)ccc1O (stereo not shown) [1-[2-Hydroxy-4-(2-hydroxy-5-thiophen-3-ylphenyl)-4-methyl-2-trifluoromethylpentyl]-1H-quinolin-4-one] | potent activity
COc1ccc(F)cc1C(C)(C)CC(O)(Cn1cc(C)c(=O)c2ccccc21)C(F)(F)F (stereo not shown) | potent activity
Cc1ccc(C)c(C(C)(C)CC(O)(Cn2ccc(=O)c3ccccc32)C(F)(F)F)c1 (stereo not shown) | potent activity
Cc1cn(CC(O)(CC(C)(C)c2cccc3c2OCC3)C(F)(F)F)c(CO)c(C)c1=O (stereo not shown) [1-[4-(2,3-Dihydrobenzofuran-7-yl)-2-hydroxy-4-methyl-2-trifluoromethylpentyl]-2-hydroxymethyl-3,5-dimethyl-1H-pyridin-4-one] | potent activity
COc1ccc(F)cc1C(C)(C)CC(C)(O)Cn1cc(C)c(=O)c(C)c1 (stereo not shown) [1-[4-(5-Fluoro-2-methoxyphenyl)-2-hydroxy-2,4-dimethylpentyl]-3,5-dimethyl-1H-pyridin-4-one] | potent activity
COc1ccc(F)cc1C(C)(C)CC(O)(Cn1ccc(=O)c2cccc(F)c21)C(F)(F)F (stereo not shown) [8-Fluoro-1-[4-(5-fluoro-2-methoxyphenyl)-2-hydroxy-4-methyl-2-trifluoromethylpentyl]-1H-quinolin-4-one] | potent activity
CC(C)(CC(O)(Cn1ccc(=O)c2ccccc21)C(F)(F)F)c1cccc(-c2ccccc2)c1 (stereo not shown) [1-(4-Biphenyl-3-yl-2-hydroxy-4-methyl-2-trifluoromethylpentyl)-H-quinolin-4-one] | potent activity
CC(C)(CC(O)(Cn1ccc(=O)c2ccc(Cl)cc21)C(F)(F)F)c1cc(F)ccc1O (stereo not shown) [7-Chloro-1-[4-(5-fluoro-2-hydroxyphenyl)-2-hydroxy-4-methyl-2-trifluoromethylpentyl]-1H-quinolin-4-one] | potent activity
CC(C)(CC(O)(Cn1ccc(=O)c2ncccc21)C(F)(F)F)c1cc(F)ccc1O (stereo not shown) [1-[4-(5-Fluoro-2-hydroxyphenyl)-2-hydroxy-4-methyl-2-trifluoromethylpentyl]-1H-[1,5]naphthyridin-4-one] | potent activity
COc1ccc(F)cc1C(C)(C)CC(O)(Cn1ccc(=O)c2ccccc21)C(F)(F)F (stereo not shown) [1-[4-(5-Fluoro-2-methoxyphenyl)-2-hydroxy-4-methyl-2-trifluoromethylpentyl]-1H-quinolin-4-one] | potent activity
Cc1noc(C)c1-c1ccc(O)c(C(C)(C)CC(O)(Cn2ccc(=O)c3ccccc32)C(F)(F)F)c1 (stereo not shown) [1-{4-[5-(3,5-Dimethylisoxazol-4-yl)-2-hydroxyphenyl]-2-hydroxy-4-methyl-2-trifluoromethylpentyl}-1H-quinolin-4-one] | potent activity

SMILES | activity in the GR binding assay
Cc1cn(CC(O)(CC(C)(C)c2cccc3c2OCC3)C(F)(F)F)c2ccccc2c1=O (stereo not shown) [1-[4-(2,3-Dihydrobenzofuran-7-yl)-2-hydroxy-4-methyl-2-trifluoromethylpentyl]-3-methyl-1H-quinolin-4-one] | potent activity
COc1ccc(F)cc1C(C)(C)CC(O)(CN1CCN(C(C)=O)c2ccccc21)C(F)(F)F (stereo not shown) [1-{4-[4-(5-Fluoro-2-methoxyphenyl)-2-hydroxy-4-methyl-2-trifluoromethylpentyl]-3,4-dihydro-2H-quinoxalin-1-yl}ethanone] | potent activity
CC(C)(CC(O)(Cn1ccc(=O)c2ccccc21)C(F)(F)F)c1cccc(CN2CCOCC2)c1 (stereo not shown) | potent activity
CC(C)(CC(O)(Cn1ccc(=O)c2ccccc21)C(F)(F)F)c1cc(Cl)cc2c1OCC2 (stereo not shown) [1-[4-(5-Chloro-2,3-dihydrobenzofuran-7-yl)-2-hydroxy-4-methyl-2-trifluoromethylpentyl]-1H-quinolin-4-one] | potent activity
COc1ccc(F)cc1C(C)(C)CC(O)(Cn1ccc(=O)c2ccccc21)C1CC1 (stereo not shown) | potent activity
Cc1cc2c(c(C(C)(C)CC(O)(Cn3ccc(=O)c4ccccc43)C(F)(F)F)c1)OCC2 (stereo not shown) [1-[4-(5-Methyl-2,3-dihydrobenzofuran-7-yl)-2-hydroxy-4-methyl-2-trifluoromethylpentyl]-1H-quinolin-4-one] | potent activity
CC(C)(CC(O)(Cn1ccc(=O)c2ccccc21)C(F)(F)F)c1cc(F)cc2c1OCC2 (stereo not shown) | potent activity
CC(C)(CC(O)(Cn1ccc(=O)c2ccccc21)C(F)(F)F)c1cccc(C=O)c1 (stereo not shown) [3-[4,4,4-Trifluoro-3-hydroxy-1,1-dimethyl-3-(4-oxo-4H-quinolin-1-ylmethyl)butyl]benzaldehyde] | potent activity
COc1cccc(C(C)(C)CC(O)(Cn2ccc(=O)c3ccccc32)C(F)(F)F)c1 (stereo not shown) [1-[2-Hydroxy-4-(3-methoxyphenyl)-4-methyl-2-trifluoromethylpentyl]-1H-quinolin-4-one] | potent activity
CC(=O)c1ccc(O)c(C(C)(C)CC(O)(Cn2ccc(=O)c3ccccc32)C(F)(F)F)c1 (stereo not shown) | potent activity
Cc1cc(C)cc(C(C)(C)CC(O)(Cn2ccc(=O)c3ccccc32)C(F)(F)F)c1 (stereo not shown) | potent activity
CC(=O)COc1ccc(F)cc1C(C)(C)CC(O)(Cn1ccc(=O)c2ccccc21)C(F)(F)F (stereo not shown) [1-{4-[5-Fluoro-2-(2-oxopropoxy)phenyl]-2-hydroxy-4-methyl-2-trifluoromethylpentyl}-1H-quinolin-4-one] | potent activity
Cc1noc(C)c1-c1cccc(C(C)(C)CC(O)(Cn2ccc(=O)c3ccccc32)C(F)(F)F)c1 (stereo not shown) [1-{4-[3-(3,5-Dimethylisoxazol-4-yl)phenyl]-2-hydroxy-4-methyl-2-trifluoromethylpentyl}-1H-quinolin-4-one] | potent activity
CC(C)(CC(O)(Cn1ccc(=O)c2ccccc21)C(F)(F)F)c1ccccc1 (stereo not shown) [1-[4-Phenyl-2-hydroxy-4-methyl-2-trifluoromethylpentyl]-1H-quinolin-4-one] | potent activity
CC(C)(CC(O)(Cn1ccc(=O)c2ccccc21)C(F)(F)F)c1ccc(F)c(C2OCCCO2)c1 (stereo not shown) | potent activity
